Assay [1] has as its target T1, Calcitonin gene-related peptide type 1 receptor (Homo sapiens, UniProt O60894+Q16602). Put plainly: (§1) Displacement of [125I]CGRP from human recombinant CGRP receptor. (Loss of bound radioactivity is the signal in a displacement assay; it reports binding, not function.)
Assay [2] addresses T1, Calcitonin gene-related peptide type 1 receptor. Briefly: Activity at CGRP receptor assessed as inhibition of CGRP-stimulated cAMP production. The format is functional.
Assay [3] has as its target Calcitonin gene-related peptide type 1 receptor (Homo sapiens) (UniProt Q16602). Described as §1.

SMILES strings stand for the structures. Calls of active or inactive are those of the source. The rule behind the calls is not given here.

T1 sequence (Q16602 whole entry, one chain of several): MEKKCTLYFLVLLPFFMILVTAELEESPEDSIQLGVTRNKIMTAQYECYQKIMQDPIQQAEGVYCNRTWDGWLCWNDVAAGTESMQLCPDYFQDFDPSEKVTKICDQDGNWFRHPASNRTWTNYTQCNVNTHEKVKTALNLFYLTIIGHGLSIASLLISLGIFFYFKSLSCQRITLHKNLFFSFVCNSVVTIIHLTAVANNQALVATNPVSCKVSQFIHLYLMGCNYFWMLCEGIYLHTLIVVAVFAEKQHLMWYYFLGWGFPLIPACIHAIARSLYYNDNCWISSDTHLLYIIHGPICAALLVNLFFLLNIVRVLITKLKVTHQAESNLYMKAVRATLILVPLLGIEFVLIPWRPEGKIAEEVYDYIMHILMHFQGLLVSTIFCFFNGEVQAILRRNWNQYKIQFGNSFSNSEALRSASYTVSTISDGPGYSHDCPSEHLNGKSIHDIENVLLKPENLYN
Sequence of Calcitonin gene-related peptide type 1 receptor (Homo sapiens) (Q16602 whole entry): as the sequence (Q16602 whole entry, one chain of several) above

The term Ki denotes a measure of affinity in units of concentration, obtained from inhibition or displacement. By IC50 is commonly meant the concentration that inhibits the measured activity by half. With `O=C(N[C@@H]1N=C(c2ccccc2)c2ccccc2N(CC(F)(F)F)C1=O)N1CCC(n2cc(-c3ccc(F)cc3)[nH]c2=O)CC1`, the Ki in assay [1] worked out at 11 nM. In addition, the half-inhibitory concentration (IC50) in assay [2] came to 107 nM. Take `O=C(N[C@@H]1N=C(c2ccccc2)c2ccccc2N(CC(F)(F)F)C1=O)N1CCC(n2c(O)nc3cc(C(F)(F)F)ccc32)CC1`: in assay [1], the inhibition constant Ki was 3800 nM.

For the compound `O=C(N[C@@H]1N=C(c2ccccc2)c2ccccc2N(CC(F)(F)F)C1=O)N1CCC(n2c(=O)[nH]c3c4ccccc4ccc32)CC1`, the Ki in assay [1] was determined as 27 nM. In assay [2], the half-inhibitory concentration (IC50) turned out to be 369 nM. In the case of `O=C(N[C@@H]1N=C(c2ccccc2)c2ccccc2N(CC(F)(F)F)C1=O)N1CCC(n2nc(-c3ccccc3)[nH]c2=O)CC1`, the Ki in assay [1] is 26 nM. For the same compound, the IC50 in assay [2] is 100 nM. Turning to `O=C(N[C@@H]1N=C(c2ccccc2)c2ccccc2N(CC(F)(F)F)C1=O)N1CCC(N2Cc3ccncc3NC2=O)CC1`, the inhibition constant Ki in assay [1] was determined as 350 nM. Also, the 50% inhibitory concentration (IC50) in assay [2] came to 224 nM.

For the compound `CC(C)c1cn(C2CCN(C(=O)N[C@@H]3N=C(c4ccccc4)c4ccccc4N(CC(F)(F)F)C3=O)CC2)c(=O)[nH]1`, in assay [1], the inhibition constant (Ki) was 5340 nM. As to `Cc1cccc2c1nc(O)n2C1CCN(C(=O)N[C@@H]2N=C(c3ccccc3)c3ccccc3N(CC(F)(F)F)C2=O)CC1`, in assay [1], the inhibition constant (Ki) worked out at 6900 nM. The same measure, in the same setting: as for `O=C(N[C@@H]1N=C(c2ccccc2)c2ccccc2N(CC(F)(F)F)C1=O)N1CCC(N2CC(c3ccccn3)NC2=O)CC1` (stereo partly specified), the figure is 2000 nM. Take `NC(=O)c1ccc2c(c1)[nH]c(=O)n2C1CCN(C(=O)N[C@@H]2N=C(c3ccccc3)c3ccccc3N(CC(F)(F)F)C2=O)CC1`: in assay [1], the Ki was determined as 1050 nM.

For `COc1ccc(-c2cn(C3CCN(C(=O)N[C@@H]4N=C(c5ccccc5)c5ccccc5N(CC(F)(F)F)C4=O)CC3)c(=O)[nH]2)cc1`, the Ki in assay [1] was 205 nM. Also, the IC50 in assay [2] stood at 193 nM. For `O=C(N[C@@H]1N=C(c2ccccc2)c2ccccc2N(CC(F)(F)F)C1=O)N1CCC(n2cc(CO)[nH]c2=O)CC1`, the Ki in assay [1] stood at 20000 nM. In the case of `O=C(N[C@@H]1N=C(c2ccccc2)c2ccccc2N(CC(F)(F)F)C1=O)N1CCC(n2c(=O)[nH]c3ncccc32)CC1`, the Ki in assay [1] was 23 nM. In addition, the IC50 in assay [2] was found to be 49 nM. In the same order, the values of `Cc1ccc(-c2cn(C3CCN(C(=O)N[C@@H]4N=C(c5ccccc5)c5ccccc5N(CC(F)(F)F)C4=O)CC3)c(=O)[nH]2)cc1` are 6.3 nM and 85 nM. For the compound `O=C(N[C@@H]1N=C(c2ccccc2)c2ccccc2N(CC(F)(F)F)C1=O)N1CCC(n2c(O)nc3cccc(Cl)c32)CC1`, in assay [1], the Ki stood at 6400 nM. Turning to `O=C(O)c1ccc2c(c1)[nH]c(=O)n2C1CCN(C(=O)N[C@@H]2N=C(c3ccccc3)c3ccccc3N(CC(F)(F)F)C2=O)CC1`, the inhibition constant (Ki) in assay [1] turned out to be 810 nM. Further, in assay [2], the IC50 turned out to be 715 nM. For the compound `O=C(N[C@@H]1N=C(c2ccccc2)c2ccccc2N(CC(F)(F)F)C1=O)N1CCC(n2cc(Cc3ccccc3)[nH]c2=O)CC1`, the inhibition constant Ki in assay [1] came to 1130 nM. In addition, in assay [2], the concentration for half-maximal inhibition (IC50) amounted to 450 nM. On to `O=C(N[C@@H]1N=C(c2ccccc2)c2ccccc2N(CC(F)(F)F)C1=O)N1CCC(N2CC(c3cccnc3)NC2=O)CC1` (stereo partly specified), for which the Ki in assay [1] amounted to 1050 nM. For the compound `O=C(N[C@@H]1N=C(c2ccccc2)c2ccccc2N(CC(F)(F)F)C1=O)N1CCC(N2CCNC2=O)CC1`, in assay [1], the inhibitory constant (Ki) was 855 nM. The IC50 in assay [2] was 3100 nM. `O=C(N[C@@H]1N=C(c2ccccc2)c2ccccc2N(CC(F)(F)F)C1=O)N1CCC(N2CC(c3ccccc3)NC2=O)CC1` (stereo partly specified): in assay [1], the inhibition constant Ki was 339 nM. The IC50 in assay [2] is 790 nM.

As for `O=C(N[C@@H]1N=C(c2ccccc2)c2ccccc2N(CC(F)(F)F)C1=O)N1CCC(n2cc(-c3ccccn3)[nH]c2=O)CC1`, the inhibition constant Ki in assay [1] was determined as 27 nM. Moreover, in assay [2], the IC50 worked out at 37 nM. Regarding `O=C(N[C@@H]1N=C(c2ccccc2)c2ccccc2N(CC(F)(F)F)C1=O)N1CCC(N2Cc3ccccc3NC2=O)CC1`, in assay [1], the Ki came out at 48 nM. In assay [2], the IC50 was 34 nM. Turning to `O=C(N[C@@H]1N=C(c2ccccc2)c2ccccc2N(CC(F)(F)F)C1=O)N1CCC(n2c(O)nc3c(Cl)cccc32)CC1`, the inhibition constant (Ki) in assay [1] was found to be 143 nM. For the same compound, the IC50 in assay [2] was found to be 446 nM. As for `O=C(N[C@@H]1N=C(c2ccccc2)c2ccccc2N(CC(F)(F)F)C1=O)N1CCC(N2Cc3cnccc3NC2=O)CC1`, in assay [1], the Ki was found to be 320 nM. Moreover, the IC50 in assay [2] is 627 nM. With `O=C(N[C@@H]1N=C(c2ccccc2)c2ccccc2N(CC(F)(F)F)C1=O)N1CCC(n2cc(-c3ccc(OC(F)F)cc3)nc2O)CC1`, the Ki in assay [1] was 19 nM. In addition, the IC50 in assay [2] is 74 nM. Taken in the same sequence, the figures for `O=C(N[C@@H]1N=C(c2ccccc2)c2ccccc2N(CC(F)(F)F)C1=O)N1CCC(N2Cc3cccnc3NC2=O)CC1` were 295 nM and 616 nM.

With `O=C(N[C@@H]1N=C(c2ccccc2)c2ccccc2N(CC(F)(F)F)C1=O)N1CCC(N2CC(c3ccncc3)NC2=O)CC1` (stereo partly specified), the inhibitory constant (Ki) in assay [1] was determined as 720 nM. The IC50 in assay [2] turned out to be 804 nM. On to `O=C(N[C@@H]1N=C(c2ccccc2)c2ccccc2N(CC(F)(F)F)C1=O)N1CCC(n2cc(-c3cccc(F)c3)nc2O)CC1`, for which the Ki in assay [1] was determined as 11 nM. The IC50 in assay [2] was 46 nM. In the same order, the values of `O=C(N[C@@H]1N=C(c2ccccc2)c2ccccc2N(CC(F)(F)F)C1=O)N1CCC(n2c(=O)[nH]c3cccnc32)CC1` are 427 nM and 1140 nM. Regarding `O=C(N[C@@H]1N=C(c2ccccc2)c2ccccc2N(CC(F)(F)F)C1=O)N1CCC(n2c(=O)[nH]c3ccccc32)CC1`, in assay [1], the inhibitory constant (Ki) was determined as 2250 nM. Regarding `COc1cccc(-c2cn(C3CCN(C(=O)N[C@@H]4N=C(c5ccccc5)c5ccccc5N(CC(F)(F)F)C4=O)CC3)c(O)n2)c1`, in assay [1], the inhibition constant Ki is 1.1 nM. Also, the 50% inhibitory concentration (IC50) in assay [2] was found to be 5.1 nM. As for `Cc1cccc2nc(O)n(C3CCN(C(=O)N[C@@H]4N=C(c5ccccc5)c5ccccc5N(CC(F)(F)F)C4=O)CC3)c12`, the Ki in assay [1] worked out at 20000 nM. Turning to `O=C(N[C@@H]1N=C(c2ccccc2)c2ccccc2N(CC(F)(F)F)C1=O)N1CCC(n2c(=O)[nH]c3nccnc32)CC1`, in assay [1], the inhibition constant Ki is 156 nM. Moreover, in assay [2], the IC50 is 286 nM.

For `O=C(N[C@@H]1N=C(c2ccccc2)c2ccccc2N(CC(F)(F)F)C1=O)N1CCC(n2c(O)nc3cc(F)ccc32)CC1`, in assay [1], the inhibition constant Ki was 2800 nM. For `O=C(N[C@@H]1N=C(c2ccccc2)c2ccccc2N(CC(F)(F)F)C1=O)N1CCC(N2C(=O)NCc3ccccc32)CC1`, the result in assay [3] was inactive.

On to `N#Cc1cn(C2CCN(C(=O)N[C@@H]3N=C(c4ccccc4)c4ccccc4N(CC(F)(F)F)C3=O)CC2)c(=O)[nH]1`, for which, in assay [1], the Ki was 575 nM. Moreover, the IC50 in assay [2] was found to be 990 nM. Taken in the same sequence, the figures for `O=C(N[C@@H]1N=C(c2ccccc2)c2ccccc2N(CC(F)(F)F)C1=O)N1CCC(n2c(O)nc3c(F)cccc32)CC1` were 375 nM and 373 nM. As for `O=C(O)c1cn(C2CCN(C(=O)N[C@@H]3N=C(c4ccccc4)c4ccccc4N(CC(F)(F)F)C3=O)CC2)c(=O)[nH]1`, the Ki in assay [1] was found to be 2900 nM. On to `O=C(N[C@@H]1N=C(c2ccccc2)c2ccccc2N(CC(F)(F)F)C1=O)N1CCC(n2c(=O)[nH]c3ccc(F)cc32)CC1`, for which the Ki in assay [1] was 983 nM. The 50% inhibitory concentration (IC50) in assay [2] was 1400 nM. As for `O=C1CN(C2CCN(C(=O)N[C@@H]3N=C(c4ccccc4)c4ccccc4N(CC(F)(F)F)C3=O)CC2)C(=O)N1`, the inhibition constant (Ki) in assay [1] was determined as 29 nM. Moreover, the concentration for half-maximal inhibition (IC50) in assay [2] turned out to be 100 nM. As for `O=C(N[C@@H]1N=C(c2ccccc2)c2ccccc2N(CC(F)(F)F)C1=O)N1CCC(n2c(=O)[nH]c3ccncc32)CC1`, in assay [1], the inhibition constant (Ki) was determined as 853 nM. Besides, the IC50 in assay [2] is 1400 nM. With `O=C(N[C@@H]1N=C(c2ccccc2)c2ccccc2N(CC(F)(F)F)C1=O)N1CCC(n2c(O)nc3c2ccc[n+]3[O-])CC1`, the inhibition constant (Ki) in assay [1] worked out at 1000 nM. Regarding `O=C(N[C@@H]1N=C(c2ccccc2)c2ccccc2N(CC(F)(F)F)C1=O)N1CCC(n2cc[nH]c2=O)CC1`, the Ki in assay [1] came to 583 nM. For the same compound, in assay [2], the IC50 amounted to 672 nM.

On to `O=C(N[C@@H]1N=C(c2ccccc2)c2ccccc2N(CC(F)(F)F)C1=O)N1CCC(n2c(=O)[nH]c3cnccc32)CC1`, for which the Ki in assay [1] is 685 nM. Moreover, the 50% inhibitory concentration (IC50) in assay [2] turned out to be 1380 nM. Take `O=C(N[C@@H]1N=C(c2ccccc2)c2ccccc2N(CC(F)(F)F)C1=O)N1CCC(n2c(O)nc3cc(Cl)ccc32)CC1`: the Ki in assay [1] is more than 10000 nM.

As for `O=C(N[C@@H]1N=C(c2ccccc2)c2ccccc2N(CC(F)(F)F)C1=O)N1CCC(n2cc(-c3ccc(OC(F)(F)F)cc3)[nH]c2=O)CC1`, in assay [1], the inhibition constant Ki was found to be 104 nM. Moreover, the IC50 in assay [2] amounted to 431 nM. As for `Cc1ccc2c(c1)[nH]c(=O)n2C1CCN(C(=O)N[C@@H]2N=C(c3ccccc3)c3ccccc3N(CC(F)(F)F)C2=O)CC1`, the Ki in assay [1] was found to be 6100 nM. For the compound `O=C(N[C@@H]1N=C(c2ccccc2)c2ccccc2N(CC(F)(F)F)C1=O)N1CCC(n2cc(-c3ccccc3)[nH]c2=O)CC1`, in assay [1], the Ki worked out at 11 nM. The 50% inhibitory concentration (IC50) in assay [2] stood at 14 nM. `COC(=O)c1cn(C2CCN(C(=O)N[C@@H]3N=C(c4ccccc4)c4ccccc4N(CC(F)(F)F)C3=O)CC2)c(=O)[nH]1`: in assay [1], the inhibitory constant (Ki) worked out at 110 nM. For the same compound, in assay [2], the 50% inhibitory concentration (IC50) was found to be 156 nM.

For `O=C(N[C@@H]1N=C(c2ccccc2)c2ccccc2N(CC(F)(F)F)C1=O)N1CCC(N2Cc3ncccc3NC2=O)CC1`, the Ki in assay [1] was found to be 965 nM. For the same compound, in assay [2], the concentration for half-maximal inhibition (IC50) amounted to 1840 nM. Turning to `CS(=O)(=O)c1ccc2c(c1)[nH]c(=O)n2C1CCN(C(=O)N[C@@H]2N=C(c3ccccc3)c3ccccc3N(CC(F)(F)F)C2=O)CC1`, the inhibition constant (Ki) in assay [1] came out at 260 nM. Further, the IC50 in assay [2] was 220 nM. In the case of `O=C(N[C@@H]1N=C(c2ccccc2)c2ccccc2N(CC(F)(F)F)C1=O)N1CCC(n2c(=O)[nH]c3ncncc32)CC1`, the Ki in assay [1] was 51 nM. In assay [2], the IC50 turned out to be 430 nM.
